This is an account of results in patent US20250152585A1, “PHARMACEUTICAL COMPOUND” (Duke Street Bio Limited, priority 2022, published 2025).

As usually defined, the IC50 is the point on the concentration scale where inhibition reaches its midpoint.

Where two headings read alike, the source gives them in different places.

The target of experiment [1] is T1, full length N-terminally FLAG-tagged PARP1 (Homo sapiens, UniProt P09874). In words: PARP1 probe displacement HTRF assay. Conditions: for Selectivity: PARP1 over PARP2, ratio Kd (PARP2)/Kd (PARP1); for Kd: binned Kd. On the technique in general: In TR-FRET formats the signal depends on donor and acceptor labels being close together.
Experiment [2] has as its target T2, N-terminally FLAG-tagged PARP2 (amino acids 1-583) (Homo sapiens, UniProt Q9UGN5).
T2 construct: N-terminally FLAG-tagged PARP2 (amino acids 1-583)
In words: PARP2 probe displacement HTRF assay. Conditions: binned Kd. The class given is binding. As for the experimental part:
Data analysis was performed identical as for PARP1.

The target of experiment [3] is T1, full length N-terminally FLAG-tagged PARP1. In words: PARP1 biochemical DELFIA assay (auto-PARylation). Also noted: recombinant full length human N-terminally FLAG-tagged PARP1.
Where [4] appears, read: read-out: PARP1 HTRF, PARP1 probe displacement HTRF.
Setting [5] is: binned IC50, PARP1 biochemical DELFIA assay.
Where [6] appears, read: read-out: PARP1 HTRF, probe displacement HTRF.
Setting [7] is: binned IC50, biochemical auto-PARylation assay.

T1 sequence (P09874 whole entry, the tested form may be a part): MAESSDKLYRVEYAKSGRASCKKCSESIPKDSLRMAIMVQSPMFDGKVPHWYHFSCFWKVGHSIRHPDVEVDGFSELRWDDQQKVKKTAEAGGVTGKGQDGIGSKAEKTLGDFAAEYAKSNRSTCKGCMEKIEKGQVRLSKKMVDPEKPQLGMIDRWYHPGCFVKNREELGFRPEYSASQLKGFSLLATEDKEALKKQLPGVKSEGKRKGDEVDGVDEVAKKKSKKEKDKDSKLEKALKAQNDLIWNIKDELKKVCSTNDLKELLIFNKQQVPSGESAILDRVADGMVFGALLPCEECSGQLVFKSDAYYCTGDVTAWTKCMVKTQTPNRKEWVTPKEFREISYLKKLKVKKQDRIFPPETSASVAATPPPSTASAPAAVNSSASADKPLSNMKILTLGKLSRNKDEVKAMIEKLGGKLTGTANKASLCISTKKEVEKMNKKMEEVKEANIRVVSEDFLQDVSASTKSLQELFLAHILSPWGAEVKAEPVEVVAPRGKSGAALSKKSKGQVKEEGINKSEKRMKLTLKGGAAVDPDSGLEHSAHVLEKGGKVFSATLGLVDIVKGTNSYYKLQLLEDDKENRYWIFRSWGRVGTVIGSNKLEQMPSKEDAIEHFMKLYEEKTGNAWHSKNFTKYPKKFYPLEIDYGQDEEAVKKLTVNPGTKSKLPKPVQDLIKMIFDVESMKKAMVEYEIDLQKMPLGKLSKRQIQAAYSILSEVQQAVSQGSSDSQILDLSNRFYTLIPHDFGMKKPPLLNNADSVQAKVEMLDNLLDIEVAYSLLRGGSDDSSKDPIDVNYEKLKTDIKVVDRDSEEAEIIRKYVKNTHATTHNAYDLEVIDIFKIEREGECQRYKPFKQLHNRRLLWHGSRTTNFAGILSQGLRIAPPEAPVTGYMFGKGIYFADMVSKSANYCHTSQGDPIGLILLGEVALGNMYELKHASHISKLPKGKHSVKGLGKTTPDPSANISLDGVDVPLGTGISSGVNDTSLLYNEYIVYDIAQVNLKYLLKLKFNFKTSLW
T2 sequence (Q9UGN5 whole entry, the tested form may be a part): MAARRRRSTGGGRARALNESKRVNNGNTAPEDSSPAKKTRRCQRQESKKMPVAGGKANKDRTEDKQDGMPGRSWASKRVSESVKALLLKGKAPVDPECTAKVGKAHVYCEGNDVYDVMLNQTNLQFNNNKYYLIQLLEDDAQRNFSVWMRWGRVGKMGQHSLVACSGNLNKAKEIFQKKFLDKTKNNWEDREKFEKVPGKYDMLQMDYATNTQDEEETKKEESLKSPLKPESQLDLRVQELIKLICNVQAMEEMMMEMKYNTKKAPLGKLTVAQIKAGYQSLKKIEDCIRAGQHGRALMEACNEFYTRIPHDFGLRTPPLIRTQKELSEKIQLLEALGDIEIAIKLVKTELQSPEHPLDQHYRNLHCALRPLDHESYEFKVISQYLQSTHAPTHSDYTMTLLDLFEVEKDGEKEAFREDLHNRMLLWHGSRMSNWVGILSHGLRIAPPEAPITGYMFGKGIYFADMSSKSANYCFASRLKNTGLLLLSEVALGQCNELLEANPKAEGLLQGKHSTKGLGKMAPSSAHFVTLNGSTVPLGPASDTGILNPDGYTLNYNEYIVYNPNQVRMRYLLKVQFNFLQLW

Turning to `CNC(=O)c1ccc(OCCN2CCCC(c3nc4ccccc4c(=O)[nH]3)C2)cn1` (single isomer, unassigned) [Compound 65a], in experiment [1] (probe displacement HTRF), the Selectivity entry was “+++ (+++ indicate a value of at least 100)”. Also, the Kd in experiment [1] (setting [4]) is under 10 nM; in experiment [2] (PARP2 probe displacement HTRF) it was 100 to 1000 nM. Also, in experiment [3] (setting [5]), the half-inhibitory concentration (IC50) is under 10 nM.
In the case of `O=c1[nH]c(C2CCCN(C3CCN(c4ccc(F)cc4F)CC3)C2)nc2ccccc12` (single isomer, unassigned) [Compound 113b], in experiment [1] (probe displacement HTRF), the Selectivity result is on record as “+ (+ indicates a value of 10 to less than 50)”. The Kd in experiment [1] (setting [4]) was 100 to 1000 nM; in experiment [2] (PARP2 probe displacement HTRF), over 10000 nM. Moreover, the concentration for half-maximal inhibition (IC50) in experiment [3] (setting [5]) is 100 to 1000 nM.
On to `CCc1ccc(C2CCN(C3CCN(c4ccc(C(=O)NC5CC5)nc4C#N)CC3)C2)[nH]c1=O` (single isomer, unassigned) [Compound 409a], for which the Selectivity entry in experiment [1] (probe displacement HTRF) is listed as “+++ (+++ indicate a value of at least 100)”. For the same compound, the Kd is under 10 nM in experiment [1] (setting [6]) and 1000 to 10000 nM in experiment [2] (probe displacement HTRF). For the same compound, the concentration for half-maximal inhibition (IC50) in experiment [3] (setting [7]) is under 10 nM.
On to `CNC(=O)c1cc(C)c(N2CCC(N3CCC(c4cc5ccccc5c(=O)[nH]4)C3)CC2)c(C)n1` (single isomer, unassigned) [Compound 205b], for which the Selectivity result in experiment [1] (probe displacement HTRF) was “+ (+ indicates a value of 10 to less than 50)”. Besides, the values for the Kd in experiment [1] (setting [4]) and in experiment [2] (PARP2 probe displacement HTRF) were 10 to 100 nM and 1000 to 10000 nM, respectively. Moreover, the 50% inhibitory concentration (IC50) in experiment [3] (setting [5]) was in the range of 10 to 100 nM.
For the compound `CNC(=O)c1ccc(N2CCC(N3CCC(c4nc5ncccc5c(=O)[nH]4)C3)CC2)cn1` (single isomer, unassigned) [Compound 60b], the Selectivity result in experiment [1] (probe displacement HTRF) is “++ (++ indicates a value of 50 to less than 100)”. The Kd in experiment [1] (setting [4]) is 10 to 100 nM; in experiment [2] (PARP2 probe displacement HTRF), over 10000 nM. For the same compound, in experiment [3] (setting [5]), the IC50 fell in the range of 100 to 1000 nM.
On to `CCc1ccc(C2CCN(C3CCN(c4cnc(C(=O)NC)nc4Cl)CC3)C2)[nH]c1=O` (racemic) [Compound 242rac], for which the Selectivity result in experiment [1] (probe displacement HTRF) was “++ (++ indicates a value of 50 to less than 100)”. Further, the values for the Kd in experiment [1] (setting [6]) and in experiment [2] (probe displacement HTRF) were under 10 nM and 100 to 1000 nM, respectively. Besides, the half-maximal inhibitory concentration (IC50) in experiment [3] (setting [7]) is under 10 nM.
For `CNC(=O)c1ncc(N2CCC(N3CCC(c4cc5cccc(F)c5c(=O)[nH]4)C3)CC2)c(C(F)(F)F)n1` (single isomer, unassigned) [Compound 277b], the Selectivity result in experiment [1] (probe displacement HTRF) was “++ (++ indicates a value of 50 to less than 100)”. Further, the Kd was 10 to 100 nM in experiment [1] (setting [6]) and over 10000 nM in experiment [2] (probe displacement HTRF). Moreover, the 50% inhibitory concentration (IC50) in experiment [3] (setting [7]) was 10 to 100 nM.
Turning to `CNC(=O)c1ccc(N2CCC(N3CCC(c4nc5sc6c(c5c(=O)[nH]4)CCC6)C3)CC2)cn1` (single isomer, unassigned) [Compound 189b], the Selectivity entry in experiment [1] (probe displacement HTRF) is listed as “++ (++ indicates a value of 50 to less than 100)”. The Kd was under 10 nM in experiment [1] (setting [4]) and 10 to 100 nM in experiment [2] (PARP2 probe displacement HTRF). Also, in experiment [3] (setting [5]), the IC50 is under 10 nM.
With `CNC(=O)c1ncc(N2CCC(N3CCC(c4cc5ccc(F)cc5c(=O)[nH]4)C3)CC2)c(C)n1` (single isomer, unassigned) [Compound 265b], the Selectivity entry in experiment [1] (probe displacement HTRF) was “+++ (+++ indicate a value of at least 100)”. In addition, the Kd in experiment [1] (setting [6]) was under 10 nM; in experiment [2] (probe displacement HTRF), 100 to 1000 nM. In addition, the IC50 in experiment [3] (setting [7]) is under 10 nM.
`CC(=O)NC(=O)c1ccc(N2CCC(N3CCC(c4cc5ccccc5c(=O)[nH]4)C3)CC2)cn1` (single isomer, unassigned) [Compound 333a]: in experiment [1] (probe displacement HTRF), the Selectivity entry is recorded as “+++ (+++ indicate a value of at least 100)”. Besides, the values for the Kd in experiment [1] (setting [6]) and in experiment [2] (probe displacement HTRF) were under 10 nM and 100 to 1000 nM, respectively. For the same compound, in experiment [3] (setting [7]), the IC50 was under 10 nM.
Turning to `CNC(=O)c1ccc(N2CCC(N3CCC(c4cc5c(c(=O)[nH]4)CCC(=O)N5)C3)CC2)cn1` (single isomer, unassigned) [Compound 309a, 5-(4-(3-(2,5-dioxo-1,2,3,4,5,6-hexahydro-1,6-naphthyridin-7-yl)pyrrolidin-1-yl)piperidin-1-yl)-N-methylpicolinamide], the Kd in experiment [1] (PARP1 HTRF, probe displacement HTRF) was under 10 nM; in experiment [2] (probe displacement HTRF) it was over 10000 nM. Moreover, the Selectivity entry in experiment [1] (probe displacement HTRF) is recorded as “+++ (+++ indicate a value of at least 100)”. Also, the IC50 in experiment [3] (setting [7]) is under 10 nM.
